Earlier results in patent publication US20120171270A1, “DUAL ACTION ORGANIC FORMULATION TO CONTROL TWO STAGES OF INSECT PESTS” (priority 2010, published 2012).

Columns and labels:
gypsy moth larvae [1] = system: gypsy moth larvae
gypsy moth larvae [2] = details: 16 hours after a 2 minute crawling exposure to glass coated with a 4 mg/litre spinosad solution
gypsy moth larvae [3] = details: 3-day exposure; 13-day evaluation; 2nd instar larvae; red oak leaf disks
[4] = system: mammalian and avian species; details: in vivo

Molecule	mating in low-density populations at lower doses (gypsy moth; 15, 6, and 3 grams per acre)	mating in low-density populations (gypsy moth; 30 grams per acre)	population reduction at low application rate (gypsy moth larvae [1]; application rate of 0.75 mg/litre)	concentrations that effectively controlled larvae (gypsy moth larvae [1]; applied to foliage to run-off, 2nd instar larvae, laboratory and field) [mg/L]	larval population reduction (gypsy moth larvae [1]; at 3 to 50 mg/litre applied to run-off) [%]	toxicity in the laboratory, efficacy and persistence in the field versus permethrin (gypsy moth larvae [1]; in vivo)	treated larvae paralyzed (gypsy moth larvae [2]) [%]	LC50 (gypsy moth larvae [3]) [mg AI/cm2]	toxicity to mammalian and avian species [4]
CCCCCCCCCC[C@H]1O[C@H]1CCCCC(C)C [disparlure]	can be suppressed	suppresses mating	–	–	–	–	–	–	–
spinosad	–	–	large population reductions	3 ± 50	95±100	comparable to those achieved with permethrin	50	0.0015	little or no toxicity
